Data as given in US20110021477A1, “COMBINATIONS COMPRISING […] AGENTS AND CORTICOSTERIODS” (priority 2004, published 2011).

Tested on: ovoalbumin-sensitized guinea-pig isolated tracheal rings
Experiment: Inhibition of antigen (ovoalbumin)-induced contraction in ovoalbumin-sensitized guinea-pig isolated tracheal rings (organ bath)
Experimental: Male Dunkin-Hartley guinea-pigs (weighing 380-420 g) from Harlan Ibérica (St. Feliu de Codines, Spain) are used. They are housed, with free access to food and water, in rooms kept at 22±2° C. under a 12 hours light-dark cycle until the start of the experiment.
The animals are sensitised by means of two sessions of aerosolization with a solution of 5 mg/ml of ovoalbumin on days zero and 7 of the study. The aerosolization procedure consists of two 30-s nebulisations (Efbe air brush apparatus) with an interval of 5 minutes with animals maintained in a plexiglass box for 10 minutes since the beginning of the procedure.
Between days 14 to 20 from the beginning of the experiment the animals are euthanised and the tracheal tissue is removed. A single tracheal ring is excised and suspended in an organ bath containing Krebs solution. Once attached to a force isometric transducer, it is submitted to a basal resting tension of 1 g, equilibrated with a mixture a 5% CO2 in O2 and maintained at 37° C.
The preparations are allowed to equilibrate for a period of not less than 60 minutes and then the vehicle or the compound(s) to be tested are added to the bath. […] At this moment ovoalbumin is added (at a final concentration in the bath of 10 μg/ml) to elicit the contractile response which is measured immediately.
The contractile responses measured with a force isometric transducer are expressed in mg.

C[C@H]1C[C@H]2[C@@H]3CCC4=CC(=O)C=C[C@]4(C)[C@@]3(Cl)[C@@H](O)C[C@]2(C)[C@@]1(O)C(=O)CO [BECLOMETHASONE, beclomethasone]
% INHIBITION OF THE CONTRACTILE RESPONSE (each compound 10 μM in bath, ovoalbumin 10 μg/ml, relative to vehicle): 12%
inhibition of the contractile response to antigen, comparison in words (ovoalbumin-sensitized guinea-pig tracheal rings, summary of Table 1 and FIG. 1): smaller effect
